Experimental data published in EP2221291B1, “CYCLOHEXENONE COMPOUNDS FROM ANTRODIA CAMPHORATA AND PHARMACEUTICAL COMPOSITIONS THEREOF USEFUL FOR TREATING AUTOIMMUNE DISEASES” (Golden Biotechnology Corporation, priority 2007, dated 2009).

Columns and labels:
female NZB/WF1 SLE mice = test: Changes of proteinuria in SLE mouse model (Bio-Rad protein assay of urine); type: in vivo; settings: for proteinuria level: after 6 weeks of experiment, oral once per day (cyclohexenone compounds 50 mg/kg; prednisolone 1.25 mg/kg), negative control 89.16 vs. 246 mg/dl
Protocol: (§1) Female NZB/WF1 mice spontaneously develop human SLE-like syndromes, such as generation of antinuclear autoantibodies, proteinuria, and renal toxicity to cause death. The disease is more severe in female mice than in male mice; the morbidity of female mice is also higher than that of male mice. Therefore, female NZB/WF1 mice were used for screening anti-SLE drugs in this study.
(§2) Thirty female NZB/WF1 mice (purchased from Jackson Lab, USA) between 12-24 weeks of age were analyzed biweekly to determine proteinuria levels, monthly to assess the titers of antinuclear autoantibody (ANA). The increased titers of ANA and positive response implicated that female NZB/WF1 mice were going to develop SLE and were ready for grouping. At 22 weeks of age, the animals showing the abovementioned syndromes were randomly divided into 3 groups (10 mice per group, water was administered to negative control group, steroid was given to positive control group, and cyclohexenone compounds of Antrodia camphorata was administered to experiment group), and the start time for the experiment was set as week zero. In addition, ten B6 mice (purchased from National Laboratory Animal Center, Taiwan) without SLE syndrome were normal mice served as blank group. Table 1 Treatment of animal groups
The blank group in Table 1 was B6 mice of no SLE syndrome, which received no treatment and normal diet for natural growth. NZB/WF1 female mice that were able to express SLE syndromes were served in negative control and positive control groups. Mice in the former group received normal water; in the latter were orally medicated with 1.25 mg/kg of prednisolone, the SLE drug. Mice in the experiment group were orally medicated with 50 mg/kg of cyclohexenone compounds from Example 1. […]
SLE patients develop renal inflammation and damage, which cause leakage of protein from kidney into the fluid. […] Ten µl of urine was assayed with Bio-Rad Protein Assay Dye Reagent Concentrate (Bio-Rad Laboratories, USA) and read under […] with an ELISA analyzer to determine the protein concentration with a standard curve.

[1] = system: anti-dsDNA antinuclear antibodies in female NZB/WF1 SLE mice; test: Titers of anti-dsDNA antinuclear antibodies in plasma of SLE mouse model (Mouse Anti-dsDNA IgG ELISA); type: in vivo; settings: for titer of anti-dsDNA antinuclear antibodies decreased to: week 8, oral once per day (cyclohexenone compounds 50 mg/kg; prednisolone 1.25 mg/kg), reference of the percentage not stated
Protocol: as §1, §2
The blank group in Table 1 was B6 mice of no SLE syndrome, which received no treatment and normal diet for natural growth. NZB/WF1 female mice that were able to express SLE syndromes were served in negative control and positive control groups. Mice in the former group received normal water; in the latter were orally medicated with 1.25 mg/kg of prednisolone, the SLE drug. Mice in the experiment group were orally medicated with 50 mg/kg of cyclohexenone compounds from Example 1. The mice were fed with the abovementioned substances once per day starting at 23 weeks of age, and this period of time was referred to as the first week of this experiment. […]
The titers of dsDNA antinuclear antibodies were determined in this study to assess the effects of cyclohexenone compounds from Antrodia camphorata on SLE mice. […]

Compound: COC1=C(OC)C(O)C(CC=C(C)CCC=C(C)CCC=C(C)C)C(C)C1=O (stereo not drawn) [4-hydroxy-2,3-dimethoxy-6-methyl-5(3,7,11-trimethyl-dodeca-2,6,10-trienyl)-cyclohex-2-enone]
- proteinuria level (female NZB/WF1 SLE mice): 118.2 mg/dL
- increase in proteinuria level than that before experiment (female NZB/WF1 SLE mice; after 6 weeks, oral 50 mg/kg once per day, negative control 2.76-fold): 1.3 fold
- titers of anti-dsDNA antinuclear antibodies compared with negative group ([1]; during 8 weeks of experiment, oral 50 mg/kg once per day): significantly lower titers
- titer of anti-dsDNA antinuclear antibodies decreased to [1]: 34%

Compound: C[C@]12C=CC(=O)C=C1CC[C@@H]1[C@@H]2[C@@H](O)C[C@@]2(C)[C@H]1CC[C@]2(O)C(=O)CO [prednisolone, reference compound]
- proteinuria level (female NZB/WF1 SLE mice): 32.6 mg/dL
- titer of anti-dsDNA antinuclear antibodies decreased to [1]: around 50%
